Reference: patent EP0450065A1, “ANTIVIRAL AGENT” (priority 1988, dated 1990)
Like-named read-outs stand apart in the source and are kept apart here.

What was measured:
[1] = tested on: herpes simplex virus type 1 (HF strain); test: Control of CPE (cytopathic effect) manifestation in vero cells; type: cell-based; set-up: key to Cytopathic effect [CPE] (3days) Average / Cytopathic effect [CPE] (5days) Average / Cytopathic effect [CPE] (6days) Average: CPE score: 0 none, 0.5 minute spots, 1 = 25%, 2 = 50%, 3 = ≥75% cells; key to Cytopathic effect [CPE] (3days) △CPE / Cytopathic effect [CPE] (5days) △CPE / Cytopathic effect [CPE] (3days) ΔCPE / Cytopathic effect [CPE] (6days) ΔCPE: ΔCPE = difference of average CPE score (0–3 scale) from control; settings: 20 μg/ml, HSV-1 (HF strain), Example 5; for Cytopathic effect [CPE] (3days) ΔCPE / Cytopathic effect [CPE] (6days) ΔCPE: difference from control
Procedure: (§1) In vitro antiviral activity of Compound A against herpes simplex virus type 1 (HF strain) Compound A was tested for antiviral effect by the following two methods.
(§2) Vero cells cultured and grown in a monolayer on microplates to test for cytopathic effect due to viral infection, with solutions of Compound A diluted to varying ratios and solutions of virus diluted to varying ratios added severally thereto in a volume of 0.1 ml, were cultured under the conditions of 5% CO₂ and 37°C and were examined for CPE manifestation under a microscope. The observation was continued for five to six days.
(§3) The degree of CPE brought about by viral infection was rated on the five-point scale, wherein 3 stands for CPE observed on not less than 75% of cultured cells, 2 for CPE observed on 50% of cultured cells, 1 for CPE observed on 25% of cultured cells, 0.5 for occurrence of one to two extremely minute DPE spots, and 0 for perfect absence of recognizable CPE. The CPE scores obtained at the four holes in each microplate were averaged and the difference of the average from the average obtained in the control (omitting the treatment with a chemical) was reported as ΔCPE.
(§4) In vitro antiviral effect of Compound A against herpes simplex virus type 1 (HF strain) The test was carried out by following the procedure of Example 3.

[2] = tested on: herpes simplex virus type 1 (HF strain); test: 50% Tissue culture infective dose (TCID50), Read-Munch method, negative logarithm of virus dilution; type: cell-based
Procedure: as §1
(§5) The amount of virus infecting 50% of tissues (TCID₅₀) was determined by the Read-Munch method and expressed in negative logarithm of the maximum radio of dilution of virus. The difference of the amount thus determined from the amount found in the control (omitting the treatment with a chemical) was reported as ΔTCID₅₀. A sample whose ΔCPE's found on the last day of observation and on each of the days spent for the observation exceeded 1.0 was evaluated as effective.
as §4

[3] = tested on: herpes simplex virus type 2 (169 strain); test: Control of CPE (cytopathic effect) manifestation in vero cells; type: cell-based; set-up: key to Cytopathic effect [CPE] (3days) Average / Cytopathic effect [CPE] (5days) Average / Cytopathic effect [CPE] (6days) Average: CPE score 0-3: 3 = ≥75% cells, 2 = 50%, 1 = 25%, 0 = none; key to Cytopathic effect [CPE] (3days) △CPE / Cytopathic effect [CPE] (5days) △CPE / Cytopathic effect [CPE] (6days) △CPE: difference of mean CPE score (0-3 scale) from untreated control; settings: 20 μg/ml, HSV-2 (169), Example 6; for Cytopathic effect [CPE] (3days) △CPE / Cytopathic effect [CPE] (6days) △CPE: difference from control
Procedure: as §2, §3
(§6) In vitro antiviral activity of Compound A against herpes simplex virus type 2 (169 strain) The test was carried out by following the procedure of Example 3.

[4] = tested on: herpes simplex virus type 2 (169 strain); test: 50% Tissue culture infective dose (TCID50), Read-Munch method, negative logarithm of virus dilution; type: cell-based; set-up: key to Cytopathic effect [CPE] (5days) △TCID50 / Cytopathic effect [CPE] (6days) △TCID50 / Cytopathic effect [CPE] (3days) △TCID50: difference in -log TCID50 from untreated control; key to Cytopathic effect [CPE] (5days) TCID50 / Cytopathic effect [CPE] (3days) TCID50 / Cytopathic effect [CPE] (6days) TCID50: negative log of maximum virus dilution infecting 50% of tissues; settings: HSV-2 (169), Example 6
Procedure: as §5, §6

[5] = tested on: herpes simplex virus type 1 (KOS strain); test: Control of CPE (cytopathic effect) manifestation in vero cells; type: cell-based; settings: HSV-1 (KOS), Example 7; for Cytopathic effect [CPE] (3days) △CPE / Cytopathic effect [CPE] (5days) △CPE: difference from control
Procedure: as §2, §3
(§7) Antiviral activity of Compound A and Compound B against herpes simplex virus type 1 (KOS strain) The test was carried out by following the procedure of Example 3.

[6] = tested on: herpes simplex virus type 1 (KOS strain); test: 50% Tissue culture infective dose (TCID50), Read-Munch method, negative logarithm of virus dilution; type: cell-based; set-up: key to Cytopathic effect [CPE] (5days) TCID50 / Cytopathic effect [CPE] (3days) TCID50: TCID50 as negative log of maximum virus dilution ratio; key to Cytopathic effect [CPE] (5days) △TCID50 / Cytopathic effect [CPE] (3days) △TCID50: difference from control TCID50, in negative log of virus dilution
Procedure: as §5, §7

[7] = tested on: herpes simplex virus type 1 (KOS strain); test: One-step growth of virus, plaque assay with vero cells; type: cell-based; settings: for Intracellular virus Average / log reduction at 30 µg/mL / inhibition at 30 µg/mL / Intracellular virus Control ratio % / Intracellular virus Control ratio -logT/C: 24 hours; for log reduction at 30 µg/mL / inhibition at 30 µg/mL: Human alphaherpesvirus 1, Vero; for log reduction at 30 µg/mL: read-out: Intracellular virus Control ratio -logT/C; for inhibition at 30 µg/mL: read-out: Intracellular virus Control ratio %
Procedure: Antiviral activity of Compound A and Compound B against one-step growth of herpes simplex virus type 1 (KOS strain) Cells grown in a monolayer, with a sample of a given compound diluted in a varying ratio added, were pretreated for 15 minutes. Then, the pretreated cells were infected with the herpes simplex virus type 1 (KOS strain) at an infecting ratio of 0.25 and left standing for 24 hours. At the end of the standing, the intracellular and extracellular amounts of virus were determined by the plaque assay with vero cells.

vero cells [8] = settings: african green monkey
Procedure: Compound A and Compound B were severally dissolved in distilled water in a concentration of 5 mg/ml, to prepare master solutions. Each of the master solutions was suitably diluted with an Eagle's MEM culture medium containing 10% fetal bovine serum. A 0.2-ml portion of the resultant dilution product was placed on vero cells cultured in advance on a microplate and grown in a monolayer, cultured further thereon at 37°C for three to five days. Samples taken severally after three days'and five days'culture were placed under a microscope and tested for cytopathogenic effect brought about by a chemical agent.

vero cells [9] = settings: control ratio on propagation of vero cells, 72hr
Procedure: Samples of the control group contained 0.1 ml of a culture solution (an Eagle's MEM culture medium containing 10% fetal bovine serum).
The test was conducted by using three culture tubes per group, culturing the cells in the tubes at 37°C for three days, and taking count of live cells by the dye-exclusion method.

[10] = 20 μg/ml, HSV-1 (HF strain), Example 5
[11] = Human alphaherpesvirus 1, 72 h, read-out: Cytopathic effect [CPE] (3days) ΔTCID50
[12] = Human alphaherpesvirus 1, 144 h, read-out: Cytopathic effect [CPE] (6days) ΔTCID50
[13] = 30 μg/ml, HSV-1 (KOS), Example 7
[14] = 24 h, 30 μg/ml, extracellular virus
[15] = 100 μg/ml, HSV-1 (KOS), Example 7
[16] = 100 μg/ml, HSV-1 (KOS), Example 7, difference from control
[17] = 200 μg/ml, HSV-1 (KOS), Example 7
[18] = 200 μg/ml, HSV-1 (KOS), Example 7, difference from control

## Nc1ncnc2c1ncn2[C@@H]1O[C@H](CO)[C@@H](O)[C@@H]1O [Ara A, adenine arabinoside, reference compound]
[1]
  Cytopathic effect [CPE] (3days) Average: 2.5
  Cytopathic effect [CPE] (6days) Average: 3.0
  Cytopathic effect [CPE] (3days) ΔCPE: 0.25
  Cytopathic effect [CPE] (6days) ΔCPE: 0
[2]; [10]
  Cytopathic effect [CPE] (3days) TCID50: 6.5
  Cytopathic effect [CPE] (6days) TCID50: 6.5
[2]; 20 μg/ml, HSV-1 (HF strain), Example 5, difference from control
  Cytopathic effect [CPE] (6days) ΔTCID50: no discernible antiviral effect
[2]; [11]
  log reduction at 20 µg/mL: -0.2
[2]; [12]
  log reduction at 20 µg/mL: -0.2
[3]
  Cytopathic effect [CPE] (3days) Average: 0.5
  Cytopathic effect [CPE] (6days) Average: 3.0
  Cytopathic effect [CPE] (3days) △CPE: 1.0
  Cytopathic effect [CPE] (6days) △CPE: 0
[4]; 20 μg/ml
  Cytopathic effect [CPE] (3days) TCID50: 7.0
  Cytopathic effect [CPE] (6days) TCID50: 7.5
[4]; 20 μg/ml, difference from control
  Cytopathic effect [CPE] (6days) △TCID50: nil
[4]; Human alphaherpesvirus 2, 72 h, read-out: Cytopathic effect [CPE] (3days) △TCID50, 20 μg/ml, difference from control
  log reduction at 20 µg/mL: -0.3
[4]; Human alphaherpesvirus 2, 144 h, read-out: Cytopathic effect [CPE] (6days) △TCID50, 20 μg/ml, difference from control
  log reduction at 20 µg/mL: -0.8
[5]; 30 μg/ml
  Cytopathic effect [CPE] (3days) Average: 1.0
  Cytopathic effect [CPE] (5days) Average: 2.0
  Cytopathic effect [CPE] (3days) △CPE: 1.0
  Cytopathic effect [CPE] (5days) △CPE: 1.0
[6]; [13]
  Cytopathic effect [CPE] (3days) TCID50: 5.0
  Cytopathic effect [CPE] (5days) TCID50: 5.7
[6]; Human alphaherpesvirus 1, 72 h, read-out: Cytopathic effect [CPE] (3days) △TCID50
  log reduction at 30 µg/mL: 0.5
[6]; Human alphaherpesvirus 1, 120 h, read-out: Cytopathic effect [CPE] (5days) △TCID50
  log reduction at 30 µg/mL: 0.3
[7]; 30 μg/ml, extracellular virus
  Intracellular virus Average: 3.93×10^3 /dish
[7]; 30 μg/ml
  Intracellular virus Average: 7.38×10^4 /dish
  inhibition at 30 µg/mL: > 99.9%
[7]; [14]
  log reduction at 30 µg/mL: 3.88
[7]; 24 h, 30 μg/ml
  log reduction at 30 µg/mL: 4.74

## O=c1[nH]c(=O)n([C@H]2C[C@H](O)[C@@H](CO)O2)cc1I [IDU, reference compound]
[1]
  Cytopathic effect [CPE] (3days) Average: 2.25
  Cytopathic effect [CPE] (6days) Average: 3.0
  Cytopathic effect [CPE] (3days) ΔCPE: 0.5
  Cytopathic effect [CPE] (6days) ΔCPE: 0
[2]; [10]
  Cytopathic effect [CPE] (3days) TCID50: 6.3
  Cytopathic effect [CPE] (6days) TCID50: 6.5
[2]; [11]
  log reduction at 20 µg/mL: 0
[2]; [12]
  log reduction at 20 µg/mL: -0.2
[3]
  Cytopathic effect [CPE] (3days) Average: 0.75
  Cytopathic effect [CPE] (6days) Average: 1.25
  Cytopathic effect [CPE] (3days) △CPE: 1.75
  Cytopathic effect [CPE] (6days) △CPE: 1.75
[4]; 20 μg/ml
  Cytopathic effect [CPE] (3days) TCID50: 5.3
  Cytopathic effect [CPE] (6days) TCID50: 5.5
[4]; Human alphaherpesvirus 2, 72 h, 20 μg/ml, difference from control, read-out: Cytopathic effect [CPE] (3days) △TCID50
  log reduction at 20 µg/mL: 1.4
[5]; 30 μg/ml
  Cytopathic effect [CPE] (3days) Average: 1.0
  Cytopathic effect [CPE] (5days) Average: 2.0
  Cytopathic effect [CPE] (3days) △CPE: 1.0
  Cytopathic effect [CPE] (5days) △CPE: 1.0
[6]; [13]
  Cytopathic effect [CPE] (3days) TCID50: 5.3
  Cytopathic effect [CPE] (5days) TCID50: 6.0
[6]; Human alphaherpesvirus 1, 72 h, 30 μg/ml, HSV-1 (KOS), Example 7, difference from control, read-out: Cytopathic effect [CPE] (3days) △TCID50
  log reduction at 30 µg/mL: 0.2
[6]; Human alphaherpesvirus 1, 120 h, 30 μg/ml, HSV-1 (KOS), Example 7, difference from control, read-out: Cytopathic effect [CPE] (5days) △TCID50
  log reduction at 30 µg/mL: 0.3
[7]; 30 μg/ml, extracellular virus
  Intracellular virus Average: 7.50×10^3 /dish
[7]; 30 μg/ml
  Intracellular virus Average: 1.00×10^6 /dish
[7]; [14]
  inhibition at 30 µg/mL: > 99.9%
  log reduction at 30 µg/mL: 3.6
[7]; 24 h, 30 μg/ml
  inhibition at 30 µg/mL: 99.8%
  log reduction at 30 µg/mL: 2.61

## K₇PW₁₀Ti₂O₄₀.6H₂O [Compound B]
[5]; 100 μg/ml
  Cytopathic effect [CPE] (3days) Average: 0
  Cytopathic effect [CPE] (5days) Average: 0
  Cytopathic effect [CPE] (3days) △CPE: 2.0
  Cytopathic effect [CPE] (5days) △CPE: 3.0
[5]; 200 μg/ml
  Cytopathic effect [CPE] (3days) Average: 0
  Cytopathic effect [CPE] (5days) Average: 0
  Cytopathic effect [CPE] (3days) △CPE: 2.0
  Cytopathic effect [CPE] (5days) △CPE: 3.0
[6]; [15]
  Cytopathic effect [CPE] (3days) TCID50: 3.5
  Cytopathic effect [CPE] (5days) TCID50: 3.5
[6]; [16]
  Cytopathic effect [CPE] (3days) △TCID50: 2.0
  Cytopathic effect [CPE] (5days) △TCID50: 2.5
[6]; [17]
  Cytopathic effect [CPE] (3days) TCID50: 3.5
  Cytopathic effect [CPE] (5days) TCID50: 3.5
[6]; [18]
  Cytopathic effect [CPE] (3days) △TCID50: 2.0
  Cytopathic effect [CPE] (5days) △TCID50: 2.5
[7]; 50 μg/ml, extracellular virus
  Intracellular virus Average: 5.83×10^5 /dish
  Intracellular virus Control ratio %: 98.1%
  Intracellular virus Control ratio -logT/C: 1.711
[7]; 50 μg/ml
  Intracellular virus Average: 6.00×10^5 /dish
  Intracellular virus Control ratio %: 99.8%
  Intracellular virus Control ratio -logT/C: 2.831
[7]; 100 μg/ml, extracellular virus
  Intracellular virus Average: 2.10×10^5 /dish
  Intracellular virus Control ratio %: 99.3%
  Intracellular virus Control ratio -logT/C: 2.155
[7]; 100 μg/ml
  Intracellular virus Average: 1.12×10^5 /dish
  Intracellular virus Control ratio -logT/C: 3.560
[7]; 100 μg/ml, 1440 min
  Intracellular virus Control ratio %: >99.9%
[7]; 200 μg/ml, extracellular virus
  Intracellular virus Average: 4.95×10^4 /dish
  Intracellular virus Control ratio %: 99.8%
  Intracellular virus Control ratio -logT/C: 2.783
[7]; 200 μg/ml
  Intracellular virus Average: 1.07×10^3 /dish
  Intracellular virus Control ratio -logT/C: 5.580
[7]; 200 μg/ml, 1440 min
  Intracellular virus Control ratio %: >99.9%
[7]; concentration not given, 1440 min
  control of the intracellular and extracellular viruses in the one-step growth: not less than 99.9%
Vero cells [8]
  maximum nontoxic doses (MNTD): > 200 µg/mL
Vero cells [8]; 72 h
  Cellular toxity (3 days) Maximum nontoxic does: >200 µg/mL
Vero cells [8]; 120 h
  Cellular toxity (5 days) Maximum nontoxic does: >200 µg/mL
Vero cells [9]; 100 μg/ml
  Ratio (%): absolutely no effect
Vero cells [9]; 200 μg/ml
  Ratio (%): absolutely no effect
